Data from patent US10016427B2, “Hydrochloride salt of((1S,2S,4R)-4-{4-[(1S)-2,3-dihydro-1H-inden-1-ylamino]-7H-pyrrolo[2,3-D]pyrimidin-7-YL}-2-hydroxycyclopentyl) methyl sulfamate” (Millennium Pharmaceuticals, Inc., priority 2009, dated 2018).
Counter-ions that a name gives are not always drawn.

Tests used:
[1] = Solid state storage stability (Peak Area % measured by HPLC); assay type: physicochemical; settings: for Peak Area % 15 days / Peak Area % Initial / Peak Area % 6 weeks: solid state; for Peak Area % Initial: -20° C. freezer; for stability on storage: compared with the potassium salt
From the text: The following table summarizes stability data obtained (Peak Area % measured by HPLC) for solid state ((1S,2S,4R)-4-{4-[(1S)-2,3-dihydro-1H-inden-1-ylamino]-7H-pyrrolo[2,3-d]pyrimidin-7-yl}-2-hydroxycyclopentyl)methyl sulfamate.

[2] = Solubility of Form 1 in water; assay type: physicochemical
From the text: The resulting solution has a pH of about 2.33.

With `NS(=O)(=O)OC[C@@H]1C[C@@H](n2ccc3c(N[C@H]4CCc5ccccc54)ncnc32)C[C@@H]1O.[K]` [potassium salt (amorphous), potassium salt of ((1S,2S,4R)-4-{4-[(1S)-2,3-dihydro-1H-inden-1-ylamino]-7H-pyrrolo[2,3-d]pyrimidin-7-yl}-2-hydroxycyclopentyl)methyl sulfamate, reference compound] the “Peak Area % 15 days” value ([1]; 5° C. refrigerator) was 97.6%, the “Peak Area % 15 days” value ([1]; 40° C./75% RH) was 88.7% and the “Peak Area % 15 days” value ([1]; 60° C./75% RH) was 38.3%. For the same compound, the “Peak Area % Initial” value [1] was 96.9%.

For `NS(=O)(=O)OC[C@@H]1C[C@@H](n2ccc3c(N[C@H]4CCc5ccccc54)ncnc32)C[C@@H]1O` [free base (amorphous), ((1S,2S,4R)-4-{4-[(1S)-2,3-dihydro-1H-inden-1-ylamino]-7H-pyrrolo[2,3-d]pyrimidin-7-yl}-2-hydroxycyclopentyl)methyl sulfamate, reference compound], the “Peak Area % 15 days” value ([1]; 5° C. refrigerator) was 96.4%, the “Peak Area % 15 days” value ([1]; 40° C./75% RH) was 94.5% and the “Peak Area % 15 days” value ([1]; 60° C./75% RH) was 93.2%. The “Peak Area % Initial” value [1] was 96.0%.

In the case of `NS(=O)(=O)OC[C@@H]1C[C@@H](n2ccc3c(N[C@H]4CCc5ccccc54)ncnc32)C[C@@H]1O` [HCl Salt Form 1, ((1S,2S,4R)-4-{4-[(1S)-2,3-dihydro-1H-inden-1-ylamino]-7H-pyrrolo[2,3-d]pyrimidin-7-yl}-2-hydroxycyclopentyl)methyl sulfamate hydrochloride Form 1], the solubility ([2]; pH 2.33, thermodynamic from solid, in water) is reported as about 7800 µg/mL, the “pH of the resulting solution” value ([2]; solution resulting from dissolution in water) is reported as “about 2.33” and the stability on storage [1] is reported as “increased stability on storage”. The “Peak Area % 6 weeks” value ([1]; 5° C. refrigerator) was 99.3%, the “Peak Area % 6 weeks” value ([1]; 40° C./75% RH) was 98.7% and the “Peak Area % 6 weeks” value ([1]; 60° C./75% RH) was 91.3%. For the same compound, the “Peak Area % Initial” value [1] was 99.2%.

For `NS(=O)(=O)OC[C@@H]1C[C@@H](n2ccc3c(N[C@H]4CCc5ccccc54)ncnc32)C[C@@H]1O` [HCl Salt Form 2, ((1S,2S,4R)-4-{4-[(1S)-2,3-dihydro-1H-inden-1-ylamino]-7H-pyrrolo[2,3-d]pyrimidin-7-yl}-2-hydroxycyclopentyl)methyl sulfamate hydrochloride Form 2], the stability on storage [1] was “increased stability on storage”, the “Peak Area % 15 days” value ([1]; 5° C. refrigerator) was 98.2% and the “Peak Area % 15 days” value ([1]; 40° C./75% RH) was 97.8%. For the same compound, the “Peak Area % 15 days” value ([1]; 60° C./75% RH) was 88.6% and the “Peak Area % Initial” value [1] was 98.3%.
